Test results: patent publication US9221781B2, “Synthesis of polyhydroxy chromenone compounds and their anti-tumor effects” (BEIJING SHENOGEN PHARMA GROUP LTD., priority 2012, dated 2015)

Assays:
K562 cells = assay: Viability of chronic leukemia cells K562 by CellTiter-Glo Luminescent Assay in vitro; type: cell-based, human; conditions: Homo sapiens, 72 hours, read-out: Inhibition of viability of cells in vitro IC50, K562 cells
Description: A: Detection of Viability of Chronic Leukemia Cells K562 by CellTiter-Glo® Luminescent Assay In Vitro
The chronic leukemia cells K562 from ATCC were maintained in IMDM and 10% fetal calf serum at 37° C. in a 5% CO2 atmosphere. The cells were subseeded in a 96-well culture plate at a cencentration of 6×10^3 cells/well.K562 cells were treated with a test compound dissolved in DMSO at the concentration of 0, 0.3 μM, 0.5 μM, 1 μM, 2 μM, 3 μM, 5 μM, 10 μM, 20 μM, 30 μM, 50 μM and 100 μM for 72 hours. Treated cells were examined by CellTiter-Glo® Luminescent Cell Viability Assay Kit (Promega), and luminescence were recorded with Envision.

HL-60 cells = assay: Inhibition of growth of acute myeloblastic leukemia HL-60 cells by MTT method; type: cell-based, human; conditions: Homo sapiens, 10^−6M, 72 hours, read-out: The inhibition percentage of cell proliferation by the compounds with a concentration of 10^−6M, HL-60 cells
Description: A: Inhibition of Growth of Acute Myeloblastic Leukemia HL-60 Cells by the Compounds Detected by MTT Method
The acute myeloblastic leukemia HL-60 cells from ATCC were maintained in IMDM and 10% fetal calf serum at 37° C. in a 5% CO2 atmosphere. The cells were subseeded in a 96-well culture plate at a concentration of 6×10^3 cells/well. HL-60 cells were treated with a test compound dissolved in DMSO at the concentration of 0, 10^−4M, 10^−5M, 10^−6M, 10^−7M, 10^−8M for 72 hours. OD value was tested by MTT method, and the inhibition ratio was calculated.

BEL-7402 cells = assay: Inhibition of liver cancer cell BEL-7402 in vitro by SRB; type: cell-based; conditions: Homo sapiens, 10^−6M, 72 hours, read-out: The inhibition percentage of cell proliferation by the compounds with a concentration of 10^−6M, BEL-7402 cells
Description: A: Inhibition of Liver Cancer Cell BEL-7402 In Vitro by the Compounds Detected by SRB
The liver cancer BEL-7402 cells from ATCC were maintained in DMDM, 10% NCS and 50 μg/ml KANA at 37° C. in a 5% CO2 atmosphere, and were subseeded in a 96-well culture plate at a concentration of 6×10^3 cells/well. BEL-7402 cells were treated with a test compound dissolved in DMSO at the concentration of 0, 10^−4M, 10^−5M, 10^−6M, 10^−7M, 10^−8M for 72 hours. OD value was tested by SRB method, and the inhibition percentage was calculated.

[1] = system: gastric cancer BGC-823 cells; assay: Inhibition of gastric cancer cell BGC-823 in vitro by MTT method; type: cell-based; conditions: Homo sapiens; BGC-823, MTT, 72 hours, FIG. 4; read-out: IC50, in vitro inhibition on cell line BGC-823 of gastric cancer
Description: A: Inhibition of Gastric Cancer Cell BGC-823 In Vitro by the Compounds by MTT Method
(§1) The gastric cancer BGC-823 cells were subseeded in a 96-well culture plate at a concentration of 3×10^3 cells/well and maintained in phenol red free DMEM medium containing 2.5% CS-FBS at 37° C. in a 5% CO2 atmosphere. BGC-823 cells were treated with a test compound dissolved in DMSO at the concentration of 0, 1, 2, 4, 8, 10 and 20 μM for 72 hours. OD value was tested by MTT method, and the inhibition percentage was calculated.

[2] = system: pancreatic cancer PANC-1 cells; assay: Inhibition of pancreatic cancer cells PANC-1 in vitro by MTT method; type: cell-based; conditions: Homo sapiens; PANC-1, MTT, 72 hours, FIG. 7; read-out: IC50, in vitro inhibition on cell line PANC-1 of pancreatic cancer
Description: A: Inhibition of Pancreatic Cancer Cells PANC-1 In Vitro by the Compounds by MTT Method
as §1, with “pancreatic” for “gastric”, “PANC-1” for “BGC-823”, “1640” for “DMEM”

[3] = system: prostate cancer cells PC-3; assay: Inhibition of prostate cancer cells PC-3 in vitro by MTT method; type: cell-based; conditions: PC-3, MTT, 72 hours, FIG. 8; read-out: IC50, in vitro inhibition on cell line PC-3 of prostatic cancer
Description: A: Inhibition of Prostate Cancer Cells PC-3 In Vitro by the Compounds by MTT Method
The […] cancer PC-3 cells were subseeded in a 96-well culture plate at a concentration of 3×10^3 cells/well and maintained in medium containing 10% F12K fetal bovine serum. PC-3 cells were treated with the test compound dissolved in DMSO at the concentration of 0, 1, 2, 4, 8, 10 and 20 μM for 72 hours. OD value was tested by MTT method, and the inhibition percentage was calculated.

[4] = system: human breast cancer BCAP-37 xenograft tumor; assay: Inhibition of growth of human breast cancer BCAP-37 cells xenograft tumor in nude mice; type: in vivo; conditions: BCAP-37 tumor bearing nude mice, 0.7 mg/mouse/day, 20 days of continuous administration, FIG. 9
Description: Nude mice with breast cancer xenografts were treated with the test compounds to test their effect on inhibiting tumor growth. Tumor tissues were taken from nude mice bearing BCAP-37 breast cancer and cut into small pieces. Several pieces of the tumor tissues were implanted into the armpit under the right front limb of female nude mice. After the implantation, the mice are fed with E2β solution once a day at the dosage of 7 μg per mouse for 6 days to stimulate growth of tumor in the experiment mice. Starting on the seventh day, the mice were intragastric administered with the test solution containing the compounds and corn oil at the dosage of 35 mg/kg. Tamoxifen was used as a positive control. Corn oil was used as a negative control. The test solution was prepared by dispersing test compound in corn oil solution. (20 mg/mL). […] Then the mice were sacrificed and the tumor tissues were dissected and weighed. The tumor growth inhibition rate was a percentage calculated using the formula: tumor growth inhibition rate=(average weight of the tumor in the negative control−average weight of the tumor treated with test compound)/average weight of the tumor in the negative control.

CC(C)=CCc1c(O)cc(O)c2c(=O)c(O)c(-c3ccc(C(F)(F)F)cc3)oc12 [Compound 1, 2-(4-trifluoromethylphenyl)-3,5,7-trihydroxy-8-(3-methyl-2-buten-1-yl)-4H-chromen-4-one]
IC50 (K562 cells): 1040 nM | inhibition at 1 µM (HL-60 cells): 60.7% | inhibition at 1 µM (BEL-7402 cells): 23.7% | IC50 [1]: 1000 to 4000 nM | IC50 [2]: 1000 to 4000 nM | IC50 [3]: 1000 to 4000 nM | average tumor weight, inhibition on the tumors [4]: inhibition of compound on the tumors
